Assay results as given in US20250230193A1, “CYCLIC COMPOUND HAVING SELECTIVE KRAS INHIBITORY EFFECT ON HRAS AND NRAS” (CHUGAI SEIYAKU KABUSHIKI KAISHA, priority 2022, published 2025).
Where a SMILES comes first, the peptide text is derived from it. Bridges are numbered along the chain shown (N, C = ends). [ ]: non-standard residue; d: D form. The star is where a group is joined. hPhe(3-Cl-4-CF3) = N[C@@H](CCc1ccc(C(F)(F)F)c(Cl)c1)C(=O)O; NPrPhe(4-Me) = CCCN[C@@H](Cc1ccc(C)cc1)C(=O)O; NMeGly(cPent) = CN[C@H](C(=O)O)C1CCCC1; NMeD = CN[C@@H](CC(=O)O)C(=O)O; NMeL = CN[C@@H](CC(C)C)C(=O)O; Morpholide = C1CN(*)CCO1; NMeA = CN[C@@H](C)C(=O)O; Ac5c = NC1(C(=O)O)CCCC1; Aze = O=C(O)[C@@H]1CCN1; NEtG = CCNCC(=O)O

Legend:
[1] = target: GDP-bound NRAS wild-type protein (Homo sapiens, UniProt P01111); experiment: Binding to NRAS by surface plasmon resonance (SPR), Single Cycle Kinetics; conditions: for NRAS/KRAS (ratio of KD value for NRAS to KD value for KRAS) / NRAS/KRAS (ratio of KD value with respect to NRAS to KD value with respect to KRAS): GDP-bound NRAS wild-type vs GDP-bound KRAS wild-type
Sequence of GDP-bound NRAS wild-type protein (P01111 whole entry): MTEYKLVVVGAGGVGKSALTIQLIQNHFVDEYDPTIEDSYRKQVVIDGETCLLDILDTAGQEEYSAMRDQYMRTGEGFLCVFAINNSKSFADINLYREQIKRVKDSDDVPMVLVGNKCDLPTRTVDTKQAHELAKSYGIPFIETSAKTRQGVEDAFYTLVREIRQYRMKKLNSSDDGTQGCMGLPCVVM

[2] = target: GDP-bound HRAS wild-type protein (Homo sapiens, UniProt P01112); experiment: Binding to HRAS by surface plasmon resonance (SPR), Single Cycle Kinetics; conditions: for HRAS/KRAS (ratio of KD value for HRAS to KD value for KRAS) / HRAS/KRAS (ratio of KD value with respect to HRAS to KD value with respect to KRAS): GDP-bound HRAS wild-type vs GDP-bound KRAS wild-type
Sequence of GDP-bound HRAS wild-type protein (P01112 whole entry): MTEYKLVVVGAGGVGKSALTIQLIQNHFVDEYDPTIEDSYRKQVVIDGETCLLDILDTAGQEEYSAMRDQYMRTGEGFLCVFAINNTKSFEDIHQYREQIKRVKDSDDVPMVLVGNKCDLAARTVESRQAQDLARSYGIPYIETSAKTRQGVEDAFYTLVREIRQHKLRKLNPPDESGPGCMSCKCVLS

SMILES | NRAS/KRAS (ratio of KD value for NRAS to KD value for KRAS) ([1]; KD ratio, SPR) | HRAS/KRAS (ratio of KD value for HRAS to KD value for KRAS) ([2]; KD ratio, SPR) | NRAS/KRAS (ratio of KD value with respect to NRAS to KD value with respect to KRAS) ([1]; KD ratio, SPR) | HRAS/KRAS (ratio of KD value with respect to HRAS to KD value with respect to KRAS) ([2]; KD ratio, SPR) | other results
CCC[C@H]1C(=O)N[C@@H]([C@@H](C)CC)C(=O)N(C2CC2)CC(=O)N(C)[C@H]2C/C=C\CCN(C2=O)[C@@H](Cc2ccc(C(F)(F)F)cc2)C(=O)N(C)CC(=O)N[C@@H](CCc2ccc(C(F)(F)F)c(OC)c2)C(=O)N2C[C@H](OCC)C[C@H]2C(=O)N(C)C2(CCC2)C(=O)N(C)[C@@H](C2CCCC2)C(=O)N(C)[C@H](C(=O)N2CCCCC2)CC(=O)N1C [PP3095, (2S,8S,12R,14S,20S,23S,27S,30S,36S,38Z)-20-cyclopentyl-32-cyclopropyl-12-ethoxy-8-[2-[3-methoxy-4-(trifluoromethyl)phenyl]ethyl]-4,16,19,22,26,35-hexamethyl-30-[(1S)-1-methylpropyl]-23-(piperidine-1-carbonyl)-27-propyl-2-[[4-(trifluoromethyl)phenyl]methyl]spiro[1,4,7,10,16,19,22,26,29,32,35-undecazatricyclo[34.5.1.0^10,14]dotetracont-38-ene-17,1′-cyclobutane]-3,6,9,15,18,21,25,28,31,34,42-undecone] | – | – | – | – | NRAS/KRAS (ratio of KD value with respect to GDP-bound NRAS wild-type protein to KD value with respect to KRAS) ([1]; KD ratio NRAS/KRAS, SPR, GDP-bound wild-type proteins): A (a compound having 10 or more and less than 20 is denoted as A); HRAS/KRAS (ratio of KD value with respect to GDP-bound HRAS wild-type protein to KD value with respect to KRAS) ([2]; KD ratio HRAS/KRAS, SPR, GDP-bound wild-type proteins): A (a compound having 10 or more and less than 20 is denoted as A)
CC[C@H](C)[C@@H]1NC(=O)[C@H](C2CCC2)N(C)C(=O)C[C@@H](C(=O)N(C)C)N(C)C(=O)[C@H](C2CCCC2)N(C)C(=O)C2(CC(C)(C)C2)NC(=O)[C@@H]2C[C@H](C)CN2C(=O)[C@H](CCc2ccc(C(F)(F)F)c(OC)c2)NC(=O)CN(C)C(=O)[C@H](Cc2ccc(C(F)(F)F)cc2)N2CC/C=C\C[C@@H](C2=O)N(C)C(=O)CN(C)C1=O [PP2011] | A (a compound having 10 or more and less than 20 is denoted as A) | A (a compound having 10 or more and less than 20 is denoted as A) | – | – | –
CCO[C@@H]1C[C@H]2C(=O)NC3(CCC3)C(=O)N(C)[C@@H](C3CCCC3)C(=O)N(C)[C@H](C(=O)N(C)C)CC(=O)N(C)[C@@H](Cc3ccc(C#N)cc3)C(=O)N[C@@H]([C@@H](C)CC)C(=O)N(C)CC(=O)N(C)[C@H]3CCCCCN(C3=O)[C@@H](Cc3ccc(C(F)(F)F)cc3)C(=O)N(C)CC(=O)N[C@@H](CCc3cc(F)c(C(F)(F)F)c(F)c3)C(=O)N2C1 [PP1173] | – | – | B (a compound having 3 or more and less than 10 is denoted as B) | B (a compound having 3 or more and less than 10 is denoted as B) | –
CCO[C@@H]1C[C@H]2C(=O)N[C@@]3(C)CCCCCCC[C@@H](C(=O)N[C@@H]([C@@H](C)CC)C(=O)N(C)CC(=O)N(C)[C@H]4CCCCN(C4=O)[C@@H](Cc4ccc(C(F)(F)F)cc4)C(=O)N(C)CC(=O)N[C@@H](CCc4cc(F)c(C(F)(F)F)c(F)c4)C(=O)N2C1)N(C)C(=O)C[C@@H](C(=O)N1CCOCC1)N(C)C(=O)[C@H](C1CCCC1)N(C)C3=O [PP0993] | – | – | B (a compound having 3 or more and less than 10 is denoted as B) | B (a compound having 3 or more and less than 10 is denoted as B) | –
CCO[C@@H]1C[C@H]2C(=O)NC3(CC(C)(C)C3)C(=O)N(C)[C@@H](C(CC)CC)C(=O)N(C)[C@H](C(=O)N(C)C)CC(=O)N(C)[C@@H](CC3CC3)C(=O)N[C@@H]([C@@H](C)CC)C(=O)N(C)CC(=O)N(C)[C@H]3C/C=C\CCN(C3=O)[C@@H](Cc3ccc(C(F)(F)F)cc3)C(=O)N(C)CC(=O)N[C@@H](CCc3ccc(C(F)(F)F)c(OC)c3)C(=O)N2C1 [PP2155] | – | – | – | – | NRAS/KRAS (ratio of KD value with respect to NRAS to KD value with respect to KRAS) ([1]; SPR): A (a compound having 10 or more and less than 20 is denoted as A); HRAS/KRAS (ratio of KD value with respect to HRAS to KD value with respect to KRAS) ([2]; SPR): B (a compound having 3 or more and less than 10 is denoted as B)
CCCC[C@H]1C(=O)N[C@@H]([C@@H](C)CC)C(=O)N(C)CC(=O)N(C)[C@H]2C/C=C\CCN(C2=O)[C@@H](Cc2ccc(C)cc2)C(=O)N(C)CC(=O)N[C@@H](CCc2cc(F)c(C(F)(F)F)c(F)c2)C(=O)N2C[C@H](OCC)C[C@H]2C(=O)NC2(CCC2)C(=O)N(C)[C@@H](C2CCCC2)C(=O)N(C)[C@H](C(=O)N(C)C)CC(=O)N1C [PP2798] | – | – | – | – | NRAS/KRAS (ratio of KD value with respect to GDP-bound NRAS wild-type protein to KD value with respect to KRAS) ([1]; KD ratio NRAS/KRAS, class symbols): A (a compound having 10 or more and less than 20 is denoted as A); HRAS/KRAS (ratio of KD value with respect to GDP-bound HRAS wild-type protein to KD value with respect to KRAS) ([2]; KD ratio HRAS/KRAS, class symbols): A (a compound having 10 or more and less than 20 is denoted as A)
CCO[C@@H]1C[C@H]2C(=O)NC3(CCC3)C(=O)N(C)[C@@H](C3CCCC3)C(=O)N(C)[C@H](C(=O)N(C)C)CC(=O)N(C)[C@@H](Cc3ccccc3C#N)C(=O)N[C@@H]([C@@H](C)CC)C(=O)N(C)CC(=O)N(C)[C@H]3CCCCCN(C3=O)[C@@H](Cc3ccc(F)cc3)C(=O)N(C)CC(=O)N[C@@H](CCc3cc(F)c(C(F)(F)F)c(F)c3)C(=O)N2C1 [PP1155] | – | – | B (a compound having 3 or more and less than 10 is denoted as B) | B (a compound having 3 or more and less than 10 is denoted as B) | –
CCCN1C(=O)[C@@H]2CCN2C(=O)[C@H](C)N(C)C(=O)[C@H]([C@@H](C)CC)NC(=O)[C@H](CC(C)C)N(C)C(=O)C[C@@H](C(=O)N2CCOCC2)N(C)C(=O)[C@H](C2CCCC2)N(C)C(=O)C2(CCCC2)NC(=O)[C@@H]2CCCN2C(=O)[C@H](CCc2ccc(C(F)(F)F)c(Cl)c2)NC(=O)CN(CC)C(=O)[C@@H]1Cc1ccc(C)cc1 [PP0058] ([NMeL]I[NMeA][Aze][NPrPhe(4-Me)][NEtG][hPhe(3-Cl-4-CF3)]P[Ac5c][NMeGly(cPent)][NMeD]-Morpholide; lactam N-11) | – | – | – | – | NRAS/KRAS (ratio of KD for GDP-bound NRAS wild-type to KD for KRAS) ([1]; KD ratio NRAS/KRAS, SPR): C (A compound having a KD ratio of 0.1 or more and less than 3 is denoted as C); HRAS/KRAS (ratio of KD for GDP-bound HRAS wild-type to KD for KRAS) ([2]; KD ratio HRAS/KRAS, SPR): C (A compound having a KD ratio of 0.1 or more and less than 3 is denoted as C)
CCCOC[C@H]1C(=O)N[C@@H]([C@@H](C)CC)C(=O)N(C)CC(=O)N(C)[C@H]2C/C=C\CCN(C2=O)[C@@H](Cc2ccc(C(F)(F)F)cc2)C(=O)N(C)CC(=O)N[C@@H](CCc2ccc(C(F)(F)F)c(OC)c2)C(=O)N2C[C@@H](C)C[C@H]2C(=O)NC2(CCC2)C(=O)N(C)[C@@H](C2CCCC2)C(=O)N(C)[C@H](C(=O)N(C)CC)CC(=O)N1C [PP2027] | A (a compound having 10 or more and less than 20 is denoted as A) | B (a compound having 3 or more and less than 10 is denoted as B) | – | – | –
CCCN(C)C(=O)[C@@H]1CC(=O)N(C)[C@@H](CC(F)F)C(=O)N[C@@H]([C@@H](C)CC)C(=O)N(C)CC(=O)N(C)[C@H]2C/C=C\CCN(C2=O)[C@@H](Cc2ccc(C(F)(F)F)cc2)C(=O)N(C)CC(=O)N[C@@H](CCc2ccc(C(F)(F)F)c(OC)c2)C(=O)N2C[C@H](OCC)C[C@H]2C(=O)NC2(CCC2)C(=O)N(C)[C@@H](C2CCCC2)C(=O)N1C [PP2013] | A (a compound having 10 or more and less than 20 is denoted as A) | B (a compound having 3 or more and less than 10 is denoted as B) | – | – | –
